Each structure is given as a SMILES string. In brackets after ≈: the same amount, converted by molar mass. Entries after “also recorded” stand apart in the source; their conditions may differ. Read-outs that look alike come from different tables or passages of the source.

We go through three molecules from US12595254B2, “Crystal form of Resmetirom, preparation method therefor, and use thereof” (CRYSTAL PHARMACEUTICAL (SUZHOU) CO., LTD., priority 2020, dated 2026).

A short description of series [1]: Hygroscopicity by dynamic vapor sorption (DVS). It counts as physicochemical. To be noted: for Weight gain: DVS. On the procedure: Dynamic Vapor Sorption (DVS) was measured via an SMS (Surface Measurement Systems Ltd.) intrinsic DVS instrument. The instrument control software is DVS-Intrinsic control software. Typical Parameters for DVS test are as follows: • Temperature: 25° C. • Gas and flow rate: N2, 200 mL/min • RH range: 0% RH to 95% RH
Dynamic vapor sorption (DVS) analyzer was applied to evaluate the hygroscopicity of Form CSVI and Form I in the prior art with an appropriate amount. The weight gains at each relative humidity were recorded in a cycle of 0-95%-0 RH.

Series [2] can be described thus: Adhesiveness (amount sticking to the punch). As to conditions: 30 mg, Φ8 mm tooling, 10 KN held for 30 s. It counts as physicochemical. As to the method: 30 mg of Form CSVI and Form I in the prior art were weighed and then added into the dies of Φ8 mm round tooling, compressed at 10 KN and held for 30 s. The punch was weighed and amount of material sticking to the punch was calculated. The maximum amount and average amount of material sticking to the punch during the compression were recorded.

Series [3] is described as follows: Flowability (compressibility index). The class given is physicochemical. On the procedure: Compressibility index is usually utilized to evaluate the flowability of powder or granules during the drug product process. Compressibility index test method is as follows: a certain amount of powder was added into a measuring cylinder and bulk volume was recorded. Then the powder was tapped to make it in the tightest state and the tapped volume was recorded.
The bulk density (ρ0), tapped density (ρf) were calculated and compressibility index was calculated according to c=(ρf−π0)/ρf.

The nature of series [4]: Stability of crystalline form in drug product process. It counts as physicochemical. To be noted: XRPD, tablet per Tables 11 and 12. The text has this: The formulation and preparation process of Form CSVI are shown in Table 11 and Table 12, respectively.
Series [5] is described as follows: Physicochemical stability of drug substance on storage (XRPD, HPLC). To be noted: for Chemical purity during storage / Time for which crystalline state doesn't change / kept stable: open and sealed package. As to the method:
An appropriate amount of Form CSVI were stored under different conditions of 25° C./60% RH and 40° C./75% RH. Crystalline form and chemical purity were checked by XRPD and HPLC, respectively.

The nature of series [6]: Pressure stability (tableting, XRPD). The class given is physicochemical. As to the method:
ENERPAC manual tablet press was used for compression. 20 mg of Form CSVI were compressed into tablets under different pressures with the dies of a 16 mm round tooling. Crystalline form before and after tableting were checked by XRPD.

A further series is described as follows: Grinding stability. The class given is physicochemical. As to conditions: ground manually in a mortar. On the procedure: Solid sample of Form CSVI was ground manually for 5 minutes in a mortar.
The nature of series [7]: Solubility in simulated gastric fluid (SGF), HPLC. It counts as physicochemical. As to the method:
When solubility test is used to predict the in vivo performance of a drug, it is critical to simulate in vivo conditions as closely as possible. Simulated gastric fluid (SGF) can be used to simulate the condition in vivo and predict the effects of eating, thus solubility in this medium is closer to that in vivo. 15 mg of Form CSVI was suspended into 2.0 mL of SGF. After equilibrated for 1 h at 37° C., concentrations of the saturated solutions were measured by HPLC.

The nature of series [8]: Compressibility (tensile strength of compressed tablet). The class given is physicochemical. To be noted: for Diameter / Hardness / Thickness / Tensile strength: 80 mg compressed at 10 KN; for Diameter / Hardness / Thickness: after 24 h at room temperature; for Tensile strength: T=2H/πDL. On the procedure:
ENERPAC manual tablet press was used for compression. 80 mg of Form CSVI and Form I in the prior art were weighed and added into the dies of a 16 mm round tooling, compressed at 10 KN manually, then stored at room temperature for 24 h until complete elastic recovery, diameter (D) and thickness (L) were tested with caliper. Hardness (H) was tested with an intelligent tablet hardness tester. Tensile strength of the powder was calculated with the following formula: T=2H/πDL. Under a certain force, the greater the tensile strength, the better the compressibility.

With `CC(C)c1cc(Oc2c(Cl)cc(-n3nc(C#N)c(=O)[nH]c3=O)cc2Cl)n[nH]c1=O` [crystalline form F, reference compound], in series [1] (according to WO2020010068A1 and the inventors' experimental study, conditions not given), the “Hygroscopicity (in words)” value is given as “high hygroscopicity”.

Broadly, the solubility is how much of the substance goes into solution per volume. For the molecule `CC(C)c1cc(Oc2c(Cl)cc(-n3nc(C#N)c(=O)[nH]c3=O)cc2Cl)n[nH]c1=O` [Form CSVI, 2-(3,5-dichloro-4-((5-isopropyl-6-oxo-1,6-dihydropyridazin-3-yl)oxy)phenyl)-3,5-dioxo-2,3,4,5-tetrahydro-1,2,4-triazine-6-carbonitrile], the “Average amount sticking to the punch” value in series [2] is 0.05 mg. The “Maximum amount sticking to the punch” value in series [2] was found to be 0.10 mg. The molecule also yielded a Weight gain in series [1] (25° C./80% RH) of 0.07%. In [1] (XRPD before and after DVS), the “Crystal form after DVS test” value is recorded as “does not change”. Besides, in series [1] (from weight gain at 25° C./80% RH), the “Hygroscopicity (in words)” value is given as “non or almost non hygroscopic”. In series [3], the “Flowability compared with Form I in the prior art” value was “superior to that of Form I in the prior art”. Moreover, the “Crystalline form before and after the formulation process” value in [4] is “remained stable”. The Purity is recorded as 99.73% in series [5] (25° C./60% RH Open, 6 months); 99.74% in [5] (25° C./60% RH Sealed, 6 months); 99.73% in series [5] (40° C./75% RH Open, 6 months); 99.73% in [5] (40° C./75% RH Sealed, 6 months); 99.73% in series [5] (Initial). The “Solid Form” value in [5] (25° C./60% RH Open, 6 months) is “Form CSVI”; in series [5] (25° C./60% RH Sealed, 6 months), “Form CSVI”; in series [5] (40° C./75% RH Open, 6 months), “Form CSVI”; in series [5] (40° C./75% RH Sealed, 6 months) it was “Form CSVI”; in [5] (Initial), “Form CSVI”. For the same molecule, the “Chemical purity during storage” value in [5] (25° C./60% RH) and in series [5] (40° C./75% RH) was “above 99.7%” in each case. Also, the “Time for which crystalline state doesn't change / kept stable” value in series [5] (25° C./60% RH) and in series [5] (40° C./75% RH) was “at least 6 months” throughout. In series [6] (3, 7, 14 kN), the “Stability under different pressures (in words)” value is given as “good stability under different pressures”. For the same molecule, the “Solid form after tableting” value in [6] (Pressure 3 kN), in series [6] (Pressure 7 kN) and in series [6] (Pressure 14 kN) was “Form CSVI” each time. The “Grinding stability (in words)” value in the series “Grinding stability” is given as “remained stable; also recorded: doesn't change after grinding”. In addition, in series [7] (SGF, 1 h), the “Solubility of Form CSVI relative to Form I in the prior art” value is recorded as “about 2 times”. For the same molecule, the concentration in solution in [7] (simulated gastric fluid (SGF), simulated gastric fluid, thermodynamic from solid, SGF, equilibrated for 1 h at 37° C.) (solubility at 1 h) was 2.1 µg/mL (≈ 4.83 µM). The “Compressibility (in words)” value in series [8] is “better compressibility”. This molecule had a Diameter in series [8] of 6.06 mm. For the same molecule, the Hardness in series [8] is recorded as 13.4 N. In series [8], this molecule showed a Thickness of 2.05 mm. In series [8], this molecule returned a Tensile strength of 0.69 MPa.

With `CC(C)c1cc(Oc2c(Cl)cc(-n3nc(C#N)c(=O)[nH]c3=O)cc2Cl)n[nH]c1=O` [Form I in the prior art, 2-(3,5-dichloro-4-((5-isopropyl-6-oxo-1,6-dihydropyridazin-3-yl)oxy)phenyl)-3,5-dioxo-2,3,4,5-tetrahydro-1,2,4-triazine-6-carbonitrile, reference compound], in series [2], the “Average amount sticking to the punch” value is on record as 0.25 mg and the “Maximum amount sticking to the punch” value is given as 0.30 mg. Further, in [1] (25° C./80% RH), the “Weight gain of Form I relative to Form CSVI” value was “about 2 times” and the Weight gain is 0.13%. The Flowability entry in series [3] (class by compressibility index, ICH Q4B Annex 13) was “very poor”. Moreover, the “Grinding stability (in words)” value in the series “Grinding stability” (listed as crystalline form I) is recorded as “most of the crystalline form I transform to amorphous after grinding”. Moreover, the “Solubility (in words)” value in [7] (inventors' evaluation of repeated Form I) is reported as “low solubility”. In series [8], this molecule registered a Diameter of 6.06 mm, a Hardness of 7.4 N, a Thickness of 2.12 mm and a Tensile strength of 0.37 MPa. The “Compressibility (in words)” value in series [8] (listed as crystalline form I) was “poor compressibility”.
